Reference: publication PMC5303825, “The ancient CYP716 family is a major contributor to the diversification of eudicot triterpenoid biosynthesis” (Nature Communications, 2017)

Key:
Format in all cases: cell-based
CYP716A113v1 = target: T1, CYP716A113v1 (Aquilegia coerulea, UniProt A0A1I9Q601); assay: GC-MS of products in spent medium of engineered yeast; settings: co-expressed SlCAS and MTR1; putative hydroxy-cycloartenol product
T1 construct: full-length ORF from cDNA, expressed in Saccharomyces cerevisiae with tomato SlCAS and M. truncatula reductase MTR1
T1 sequence (A0A1I9Q601 1-485): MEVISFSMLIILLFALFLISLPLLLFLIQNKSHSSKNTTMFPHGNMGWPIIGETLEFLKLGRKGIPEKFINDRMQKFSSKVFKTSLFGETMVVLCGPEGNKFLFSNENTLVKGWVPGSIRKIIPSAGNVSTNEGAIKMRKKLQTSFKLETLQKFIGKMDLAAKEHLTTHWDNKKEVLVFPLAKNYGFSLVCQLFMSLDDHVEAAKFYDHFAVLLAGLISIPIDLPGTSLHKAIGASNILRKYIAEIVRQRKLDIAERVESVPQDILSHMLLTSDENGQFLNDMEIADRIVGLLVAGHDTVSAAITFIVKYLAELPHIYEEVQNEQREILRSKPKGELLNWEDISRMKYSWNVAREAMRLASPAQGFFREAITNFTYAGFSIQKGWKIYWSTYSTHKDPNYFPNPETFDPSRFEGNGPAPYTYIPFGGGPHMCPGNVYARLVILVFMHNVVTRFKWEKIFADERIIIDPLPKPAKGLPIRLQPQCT

CYP716C11 = target: T2, CYP716C11 (Centella asiatica, UniProt A0A1I9Q5Y7); assay: as above; settings: co-expressed GgBAS, CYP716A83 and MTR1; product maslinic acid
T2 construct: gene MAA45; full-length ORF from cDNA library, expressed in Saccharomyces cerevisiae with GgBAS (or CaDDS), CYP716A83 and M. truncatula reductase MTR1; T2A polyprotein CYP716A83-CYP716C11
T2 sequence (A0A1I9Q5Y7 1-475): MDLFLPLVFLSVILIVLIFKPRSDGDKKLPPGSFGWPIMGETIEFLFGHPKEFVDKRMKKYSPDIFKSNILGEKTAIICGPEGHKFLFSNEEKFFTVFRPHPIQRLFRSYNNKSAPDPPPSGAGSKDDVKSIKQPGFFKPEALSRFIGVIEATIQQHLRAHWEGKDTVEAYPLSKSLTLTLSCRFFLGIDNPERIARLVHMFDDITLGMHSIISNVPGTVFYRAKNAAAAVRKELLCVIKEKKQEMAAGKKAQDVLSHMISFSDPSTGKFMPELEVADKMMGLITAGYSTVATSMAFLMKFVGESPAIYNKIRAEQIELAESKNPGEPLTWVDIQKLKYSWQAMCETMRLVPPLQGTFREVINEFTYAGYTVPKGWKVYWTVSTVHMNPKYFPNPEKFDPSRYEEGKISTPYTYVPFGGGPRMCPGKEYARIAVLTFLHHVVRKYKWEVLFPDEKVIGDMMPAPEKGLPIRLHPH

CYP716E41 = target: T3, CYP716E41 (Centella asiatica, UniProt A0A1I9Q5Y6); assay: as above; settings: co-expressed GgBAS, CYP716A83 and MTR1; putative product 6β-hydroxy oleanolic acid
T3 construct: full-length ORF from cDNA library, expressed in Saccharomyces cerevisiae with GgBAS, CYP716A83 and M. truncatula reductase MTR1
T3 sequence (A0A1I9Q5Y6 1-477): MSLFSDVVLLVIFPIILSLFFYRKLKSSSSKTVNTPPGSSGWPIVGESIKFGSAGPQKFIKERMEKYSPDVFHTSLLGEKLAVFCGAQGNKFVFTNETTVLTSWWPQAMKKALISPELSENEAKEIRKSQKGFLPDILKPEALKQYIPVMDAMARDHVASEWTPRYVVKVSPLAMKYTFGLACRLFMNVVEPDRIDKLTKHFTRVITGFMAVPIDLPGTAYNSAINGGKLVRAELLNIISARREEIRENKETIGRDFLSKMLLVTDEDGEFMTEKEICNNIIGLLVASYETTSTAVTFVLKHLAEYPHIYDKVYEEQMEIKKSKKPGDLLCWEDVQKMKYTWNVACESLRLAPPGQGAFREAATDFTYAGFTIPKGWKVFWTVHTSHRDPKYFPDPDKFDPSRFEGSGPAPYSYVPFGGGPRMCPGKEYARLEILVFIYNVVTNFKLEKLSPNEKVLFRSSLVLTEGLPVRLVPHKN

CYP716A83 = target: T4, CYP716A83 (Centella asiatica, UniProt A0A1I9Q5Y4); assay: as above
T4 construct: full-length ORF from cDNA library, expressed in Saccharomyces cerevisiae with GgBAS (or CaDDS) and M. truncatula reductase MTR1; T2A polyprotein with CYP716C11 in some strains
T4 sequence (A0A1I9Q5Y4 entry or part of it): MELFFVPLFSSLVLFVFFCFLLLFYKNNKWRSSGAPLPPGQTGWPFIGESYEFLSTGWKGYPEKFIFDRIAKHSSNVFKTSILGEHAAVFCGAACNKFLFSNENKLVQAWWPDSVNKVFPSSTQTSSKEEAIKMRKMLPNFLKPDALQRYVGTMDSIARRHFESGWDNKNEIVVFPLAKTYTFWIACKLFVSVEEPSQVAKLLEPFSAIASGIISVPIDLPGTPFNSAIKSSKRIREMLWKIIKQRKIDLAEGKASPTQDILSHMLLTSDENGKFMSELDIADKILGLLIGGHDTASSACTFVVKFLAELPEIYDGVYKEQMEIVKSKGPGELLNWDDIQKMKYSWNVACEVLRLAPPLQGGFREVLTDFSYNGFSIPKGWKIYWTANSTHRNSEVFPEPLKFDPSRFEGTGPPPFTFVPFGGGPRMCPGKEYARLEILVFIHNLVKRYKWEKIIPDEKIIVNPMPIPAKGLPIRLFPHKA

CYP716A110 = target: T5, CYP716A110 (Aquilegia coerulea, UniProt A0A1I9Q5Z9); assay: as above; settings: co-expressed GgBAS and MTR1; products erythrodiol, oleanolic acid
T5 construct: full-length ORF from cDNA, expressed in Saccharomyces cerevisiae with GgBAS and M. truncatula reductase MTR1
T5 sequence (A0A1I9Q5Z9 1-480): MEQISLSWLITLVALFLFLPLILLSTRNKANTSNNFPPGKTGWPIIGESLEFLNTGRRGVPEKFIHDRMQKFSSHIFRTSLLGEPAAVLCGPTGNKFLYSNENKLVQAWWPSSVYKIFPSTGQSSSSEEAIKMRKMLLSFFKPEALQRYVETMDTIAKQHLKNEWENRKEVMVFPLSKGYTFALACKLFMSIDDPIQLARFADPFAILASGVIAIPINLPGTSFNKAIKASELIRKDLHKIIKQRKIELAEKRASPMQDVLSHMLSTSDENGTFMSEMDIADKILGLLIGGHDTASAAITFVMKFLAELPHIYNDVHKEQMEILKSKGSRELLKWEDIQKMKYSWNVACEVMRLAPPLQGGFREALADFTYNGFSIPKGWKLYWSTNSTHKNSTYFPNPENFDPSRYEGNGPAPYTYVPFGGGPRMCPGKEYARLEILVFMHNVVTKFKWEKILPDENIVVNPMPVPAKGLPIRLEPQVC

CYP716A141 = target: T6, CYP716A141 (Platycodon grandiflorus, UniProt A0A1I9Q5Z0); assay: GC-MS of engineered yeast medium; product NMR; settings: co-expressed GgBAS and MTR1; product 16β-hydroxy β-amyrin (minor erythrodiol, oleanolic acid)
T6 construct: full-length ORF (RACE), expressed in Saccharomyces cerevisiae with GgBAS and M. truncatula reductase MTR1; b33 once misprints C. asiatica
T6 sequence (A0A1I9Q5Z0 1-481): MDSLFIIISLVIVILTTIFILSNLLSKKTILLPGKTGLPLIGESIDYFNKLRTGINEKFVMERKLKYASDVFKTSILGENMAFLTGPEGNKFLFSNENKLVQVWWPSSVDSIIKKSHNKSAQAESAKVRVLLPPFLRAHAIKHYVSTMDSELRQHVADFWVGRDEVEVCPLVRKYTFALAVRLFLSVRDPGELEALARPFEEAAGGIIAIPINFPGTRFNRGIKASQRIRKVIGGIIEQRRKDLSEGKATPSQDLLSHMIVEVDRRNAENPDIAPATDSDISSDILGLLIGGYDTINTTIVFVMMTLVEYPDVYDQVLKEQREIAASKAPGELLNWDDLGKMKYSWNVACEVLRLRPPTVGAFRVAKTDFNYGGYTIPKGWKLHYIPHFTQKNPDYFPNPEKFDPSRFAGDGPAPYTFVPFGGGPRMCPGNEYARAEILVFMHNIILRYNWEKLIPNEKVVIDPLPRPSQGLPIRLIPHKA

CYP716A140 = target: T7, CYP716A140 (Platycodon grandiflorus, UniProt A0A1I9Q5Y8); assay: GC-MS of products in spent medium of engineered yeast; settings: co-expressed GgBAS and MTR1; products of C-28 oxidation: erythrodiol, oleanolic acid
T7 construct: full-length ORF (RACE), expressed in Saccharomyces cerevisiae with GgBAS and M. truncatula reductase MTR1
T7 sequence (A0A1I9Q5Y8 1-479): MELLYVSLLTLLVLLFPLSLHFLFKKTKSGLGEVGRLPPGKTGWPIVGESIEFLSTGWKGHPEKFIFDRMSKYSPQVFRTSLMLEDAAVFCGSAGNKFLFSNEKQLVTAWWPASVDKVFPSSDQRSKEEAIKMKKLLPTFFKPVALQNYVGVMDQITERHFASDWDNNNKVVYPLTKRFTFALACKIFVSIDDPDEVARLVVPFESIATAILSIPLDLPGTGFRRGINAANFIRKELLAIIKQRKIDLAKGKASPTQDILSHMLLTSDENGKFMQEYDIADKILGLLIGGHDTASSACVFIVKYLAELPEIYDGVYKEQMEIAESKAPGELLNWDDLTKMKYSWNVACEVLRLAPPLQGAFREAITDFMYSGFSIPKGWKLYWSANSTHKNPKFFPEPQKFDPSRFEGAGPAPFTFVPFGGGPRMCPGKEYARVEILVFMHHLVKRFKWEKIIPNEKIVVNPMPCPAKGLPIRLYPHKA

CYP716A86 = target: T8, CYP716A86 (Centella asiatica, UniProt A0A1I9Q5Y3); assay: as above; settings: co-expressed GgBAS and MTR1; products erythrodiol, oleanolic aldehyde, oleanolic acid
T8 construct: full-length ORF from cDNA library, expressed in Saccharomyces cerevisiae with GgBAS and M. truncatula reductase MTR1
T8 sequence (A0A1I9Q5Y3 1-482): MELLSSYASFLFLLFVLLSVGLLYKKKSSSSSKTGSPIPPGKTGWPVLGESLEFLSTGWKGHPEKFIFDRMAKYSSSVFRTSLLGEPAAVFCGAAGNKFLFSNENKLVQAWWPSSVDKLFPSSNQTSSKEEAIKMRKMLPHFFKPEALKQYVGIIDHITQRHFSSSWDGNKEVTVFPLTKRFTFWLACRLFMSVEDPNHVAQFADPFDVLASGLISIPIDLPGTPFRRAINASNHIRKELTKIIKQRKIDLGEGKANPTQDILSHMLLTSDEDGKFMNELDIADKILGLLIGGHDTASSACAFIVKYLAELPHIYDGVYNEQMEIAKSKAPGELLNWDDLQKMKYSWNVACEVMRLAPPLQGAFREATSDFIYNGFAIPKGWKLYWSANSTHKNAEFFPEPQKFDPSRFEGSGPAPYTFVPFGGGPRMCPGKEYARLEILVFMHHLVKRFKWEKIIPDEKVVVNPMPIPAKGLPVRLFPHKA

`CC(C)=CCC[C@@H](C)[C@H]1CC[C@@]2(C)[C@@H]3CC[C@H]4C(C)(C)[C@@H](O)CC[C@@]45C[C@@]35CC[C@]12C` [cycloartenol] was tested, and the “GC-MS of products in spent medium of engineered yeast” value (“GC-MS of products” below) (CYP716A113v1) was “dependent on both SlCAS and CYP716A113v1”.
For `CC1(C)CC[C@]2(C(=O)O)CC[C@]3(C)C(=CC[C@@H]4[C@@]5(C)CC[C@H](O)C(C)(C)[C@@H]5CC[C@]43C)[C@@H]2C1` [oleanolic acid], the “GC-MS of products” value (CYP716C11) was “CYP716C11 and CYP716E41 converted oleanolic acid to maslinic acid” and the “GC-MS of products” value (CYP716E41) was “CYP716C11 and CYP716E41 converted oleanolic acid to maslinic acid”.
With `C[C@H]1[C@H](C)CC[C@]2(C)CC[C@]3(C)C(=CC[C@@H]4[C@@]5(C)CC[C@H](O)C(C)(C)[C@@H]5CC[C@]43C)[C@H]12` [α-amyrin] the “GC-MS of products” value (CYP716A83; co-expressed CaDDS and MTR1 (with CYP716E41 or CYP716C11), product ursolic acid) was “CYP716A83, CYP716C11 and CYP716E41 can function on both oleanane and ursane backbones”.
In the case of `CC1(C)CC[C@]2(C)CC[C@]3(C)C(=CC[C@@H]4[C@@]5(C)CC[C@H](O)C(C)(C)[C@@H]5CC[C@]43C)[C@@H]2C1` [β-amyrin], the “GC-MS of products” value (CYP716A110) is reported as “CYP716A110 revealed new peaks corresponding to the erythrodiol and oleanolic acid standards”, the “GC-MS of engineered yeast medium; product NMR” value (CYP716A141) is reported as “CYP716A141 appears to be a multifunctional β-amyrin oxidase” and the “GC-MS of products” value (CYP716A140) is reported as “CYP716A140-expressing yeast showed three new peaks corresponding to C-28 oxidation”. The “GC-MS of products” value (CYP716A83; co-expressed GgBAS and MTR1, in vivo, products erythrodiol, oleanolic aldehyde, oleanolic acid) was “CYP716A83 and CYP716A86 catalyse the three-step oxidation of β-amyrin at the C-28 position” and the “GC-MS of products” value (CYP716A86) was “CYP716A83 and CYP716A86 catalyse the three-step oxidation of β-amyrin at the C-28 position”.
